The text below walks through data of US5244905A, “N-substituted cycloalkyl and polycycloalkyl polyhydro-β-carboline-phenylalanine- and phenethylamine derivatives” (Warner-Lambert Company, priority 1991, dated 1993).

The subject of one experiment is nucleus accumbens. Nature of the experiment: Locomotor activity after intra-accumbens amphetamine. Type of experiment: in vivo, rat (male Sprague Dawley (CD) Bradford). To be noted: bilateral injection 20 μg into nucleus accumbens. The protocol:
The compounds of the instant invention are useful as antipsychotic agents. Compounds are tested for their ability to reduce the effects of intra-accumbens amphetamine in the rat as described hereinafter.
Male Sprague Dawley (CD) Bradford strain rats are used. The rats are housed in groups of five at a temperature of 21°±2° C. on a 12 hour light-dark cycle of lights-on between 07 hours 00 minutes and 20 hours 00 minutes. Rats are fed CRM diet (Labsure) and allowed water ad libitum.
Rats are anesthetized with chloral hydrate (400 mg/kg SC) and placed in a Kopf stereotaxic frame. Chronically indwelling guide cannulae (constructedof stainless steel tubing 0.65 mm diameter held bilaterally in Parspex holders) are implanted using standard stereotaxic techniques to terminate 3.5 mm above the center of the nucleus accumbens (Ant. 0.4, Vert. 0.0, Lat. 1.6) or 5.0 mm above the central nucleus of the amygdala (Ant. 5.8, Vet. -1.8, Lat. ±4.5) (Atlas of De Groot, 1959). […]
Behavioral experiments are conducted between 07 hours 30 minutes and 21 hours 30 minutes in a quiet room maintained at 22°±2° C. […] Interruptions of the light beam are recorded every 5 minutes. […]
The abilities of the compounds of the invention to inhibit the hyperactivity caused by the injection of amphetamine into the nucleus accumbens of the rat is measured.

In experiment [1] the test system is aspirin-induced gastric damage. Nature of the experiment: Aspirin-induced gastric damage. To be noted: 15 mg/kg PO, p <0.001 compared with controls. It is filed as in vivo, rat. The protocol:
Aspirin-induced gastric damage is assessed in groups of 10 rats each. All animals are fasted for 24 hours before and throughout the experiment. Drug or vehicle is given 10 minutes before an oral dose of 1 mL of a 45-mg/mL suspension of aspirin in 0.5% carboxymethylcellulose (CMC). The animals are sacrificed 5 hours after aspirin administration and the stomachs removed and opened for examination. |Gastric damage is scored as follows: |1 Small hemorrhage |2 Large hemorrhage |3 Small ulcer |4 Large ulcer |5 Perforated ulcer

With `CC(N)Cc1ccccc1` (stereo not drawn) [amphetamine], the locomotor activity result in the experiment with nucleus accumbens is “increase in locomotor activity”. Turning to `CNC(=C[N+](=O)[O-])NCCSCc1ccc(CN(C)C)o1` [ranitidine], the “inhibition of ulcer formation” value in experiment [1] (10 minutes before aspirin) is on record as 74%. This compound also showed a ulcer score in experiment [1] (±SD, saline control 12.1±6.85) of 3.2±2.35.
